One experiment has as its system Streptococcus pyogenes. Description: In vitro minimum inhibitory concentration (MIC), two-fold serial dilution in Brain-Heart Infusion broth. The experiment is classed as cell-based. As to conditions: read-out: MIC vs. Strep. pyogenes. The method, then:
The antibacterial penam compounds, 6, show activity against a wide variety of gram-positive and gram-negative bacteria. […] The broth is inoculated with the bacterial culture, and with the test antibiotic, and then it is incubated overnight. On the next day, the test is read visually. The minimum inhibitory concentration (MIC) is the lowest concentration of antibiotic which prevents turbidity, i.e., which prevents growth of the microorganism. In vitro activities of several of the penam compounds of the invention are presented later in this specification.
In vitro antibacterial activities for a number of compounds prepared by the procedure of Example 4 are presented below.
In Table II, the minimum inhibitory concentrations (MIC's) of numerous compounds against a strain of Streptococcus pyogenes, are reported.

The next experiment concerns Staphylococcus aureus. In words: In vivo protection of mice against systemic infection by lethal intraperitoneal inoculum of Staphylococcus aureus. Also noted: species or system infected mice; Staphylococcus aureus. The note with it: SC, multiple dosing. The method, then:
(§1) These antibacterial penam compounds are also active in vivo. In determining such activity, the test antibiotic is administered to infected mice, using a multiple dosing regimen. The severity of the infection varies from about one to about ten times the dose needed to kill 100% of the mice under the conditions of the test. At the end of the test, the activity of a compound is assessed by counting the number of survivors among the treated animals. Both the subcutaneous (SC) and oral (PO) dosage routes are used. Results are given in Table I for two compounds produced from the novel intermediate of the invention. The ability of the compounds to protect mice against systemic infections caused by a lethal intraperitoneal inoculum of Staphylococcus aureus or of Escherichia coli is presented.

In the next experiment the test system is Escherichia coli. In words: In vivo protection of mice against systemic infection by lethal intraperitoneal inoculum of Escherichia coli. Also noted: species or system infected mice; Escherichia coli. As to conditions: multiple dosing. The method, then:
as §1

Setting [1] is: two-fold serial dilution, Brain-Heart Infusion broth, overnight incubation.

Values after ≈ are worked out from the molar mass of the structure shown. Like-named read-outs stand apart in the source and are kept apart here.

By MIC is commonly meant the smallest concentration in the dilution series that meets the test's criterion for growth inhibition. For the compound `Cc1onc(-c2ccccc2Cl)c1C(=O)NC1C(=O)N2C1SC(C)(C)C2c1nn[nH]n1` (stereo not drawn), the minimal inhibitory concentration (MIC) in the experiment with Streptococcus pyogenes (setting [1]) is less than 0.1 µg/mL. Regarding `CC1(C)SC2C(NC(=O)[C@H](N)c3ccc(O)c(Cl)c3)C(=O)N2C1c1nn[nH]n1` (stereo partly drawn), the MIC in the experiment with Streptococcus pyogenes (setting [1]) turned out to be 0.1 µg/mL (≈ 0.236 µM). On the same count and under the same terms, the figure for `CC1(C)SC2C(NC(=O)C(N)c3cc(O)ccc3Br)C(=O)N2C1c1nn[nH]n1` (racemic) is less than 0.1 µg/mL; for `CN(C)c1ccc(C(N)C(=O)NC2C(=O)N3C2SC(C)(C)C3c2nn[nH]n2)cc1` (racemic) it is 0.39 µg/mL (≈ 0.936 µM).

Regarding `CC1(C)SC2C(NC(=O)C(N)c3ccc(O)c(O)c3)C(=O)N2C1c1nn[nH]n1` (racemic) [DL-2-amino-2-(3,4-dihydroxyphenyl)acetyl], the MIC in the experiment on Streptococcus pyogenes (setting [1]) is less than 0.1 µg/mL. On the same count and under the same terms, the figure for `CC1(C)SC2C(NC(=O)C(N)c3cccc(Cl)c3)C(=O)N2C1c1nn[nH]n1` (racemic) [DL-2-amino-2-(m-chlorophenyl)acetyl] is 0.78 µg/mL (≈ 1.91 µM); for `CC1(C)SC2C(NC(=O)C(N)c3ccc(Cl)cc3)C(=O)N2C1c1nn[nH]n1` (racemic) [DL-2-amino-2-(p-chlorophenyl)acetyl] it is less than 0.1 µg/mL. The same measure, in the same setting: the figure for `CC1(C)SC2C(NC(=O)C3(N)CCCCC3)C(=O)N2C1c1nn[nH]n1` (stereo not drawn) [1-aminocyclohexylcarbonyl] is 25 µg/mL (≈ 68.4 µM); for `COc1cccc(OC)c1C(=O)NC1C(=O)N2C1SC(C)(C)C2c1nn[nH]n1` (stereo not drawn) [2,6-dimethoxybenzoyl] it is less than 0.2 µg/mL. The same measure, in the same setting: the figure for `CC1(C)SC2C(NC(=O)Cn3cnnn3)C(=O)N2C1c1nn[nH]n1` (stereo not drawn) [2-(1-tetrazolyl)acetyl] is less than 0.39 µg/mL. Take `CC1(C)SC2C(NC(=O)CSc3ccncc3)C(=O)N2C1c1nn[nH]n1` (stereo not drawn) [2-(4-pyridylthio)acetyl]: the minimum inhibitory concentration (MIC) in the experiment on Streptococcus pyogenes is less than 0.1 µg/mL. In the case of `CCN=C(NCC)SCC(=O)NC1C(=O)N2C1SC(C)(C)C2c1nn[nH]n1` (stereo not drawn) [2-(N,N'-diethylamidinothio)acetyl], the MIC with Streptococcus pyogenes (setting [1]) was less than 0.1 µg/mL.

Regarding `CC1(C)SC2C(NC(=O)C(N=[N+]=[N-])c3ccccc3)C(=O)N2C1c1nn[nH]n1` (stereo not drawn) [2-azido-2-phenylacetyl], in the experiment on Streptococcus pyogenes (setting [1]), the minimum inhibitory concentration (MIC) was less than 0.1 µg/mL.

Regarding `CC1(C)SC2C(NC(=O)CBr)C(=O)N2C1c1nn[nH]n1` (stereo not drawn) [2-bromoacetyl], the MIC in the experiment on Streptococcus pyogenes (setting [1]) is less than 0.1 µg/mL.

Turning to `CC1(C)SC2C(NC(=O)CC#N)C(=O)N2C1c1nn[nH]n1` (stereo not drawn) [2-cyanoacetyl], in the experiment on Streptococcus pyogenes (setting [1]), the MIC turned out to be 0.1 µg/mL (≈ 0.325 µM).

On to `CC1(C)SC2C(NC(=O)COc3ccccc3)C(=O)N2C1c1nn[nH]n1` (stereo not drawn) [2-phenoxyacetyl], for which the MIC in the experiment on Streptococcus pyogenes (setting [1]) is less than 0.1 µg/mL. Same read-out and setting: the figure for `CC1(C)S[C@@H]2C(NC(=O)Cc3ccccc3)C(=O)N2C1c1nnn[nH]1` (stereo partly drawn) [2-phenylacetyl, 6-(2-phenylacetamido)-2,2-dimethyl-3-(5-tetrazolyl)penam] is less than 0.1 µg/mL; for `CC1(C)SC2C(NC(=O)C=CC(N)=O)C(=O)N2C1c1nn[nH]n1` (stereo not drawn) [3-(carbamoyl)acryloyl] it is less than 0.1 µg/mL. As to `CC1(C)S[C@@H]2C(NC(=O)[C@H](N)c3ccsc3)C(=O)N2C1c1nnn[nH]1` (stereo partly drawn) [6-(D-2-amino-2-[3-thienyl]acetamido)-2,2-dimethyl-3-(5-tetrazolyl)penam], the “Percentage Protection S. aureus” value is 50 Percentage in the experiment with Staphylococcus aureus (6 mg./kg.), 50 Percentage with Staphylococcus aureus (12 mg./kg.), 60 Percentage in the experiment on Staphylococcus aureus (25 mg./kg.) and 40 Percentage in the experiment with Staphylococcus aureus (50 mg./kg.). The “Percentage Protection E. coli” value amounted to 20 Percentage in the experiment on Escherichia coli (25 mg./kg., SC); 20 Percentage in the experiment on Escherichia coli (50 mg./kg., SC); 0 Percentage with Escherichia coli (200 mg./kg., PO). As to `CC1(C)S[C@@H]2C(NC(=O)[C@H](N)c3ccc(O)cc3)C(=O)N2C1c1nnn[nH]1` (stereo partly drawn) [6-(D-2-amino-2-[p-hydroxyphenyl]acetamido)-2,2-dimethyl-3-(5-tetrazolyl)penam], the “Percentage Protection S. aureus” value in the experiment with Staphylococcus aureus (6 mg./kg.) came to 50 Percentage; in the experiment with Staphylococcus aureus (12 mg./kg.), 50 Percentage; in the experiment with Staphylococcus aureus (25 mg./kg.), 70 Percentage; with Staphylococcus aureus (50 mg./kg.) it was 80 Percentage. Moreover, the “Percentage Protection E. coli” value is 80 Percentage in the experiment on Escherichia coli (25 mg./kg., SC); 100 Percentage with Escherichia coli (50 mg./kg., SC); 100 Percentage in the experiment on Escherichia coli (200 mg./kg., PO). Also, in the experiment on Streptococcus pyogenes (setting [1]), the MIC was less than 0.1 µg/mL. As for `CC1(C)SC2C(NC(=O)[C@H](N)c3cccs3)C(=O)N2C1c1nn[nH]n1` (stereo partly drawn) [D-2-amino-2-(2-thienyl)acetyl], the MIC with Streptococcus pyogenes (setting [1]) is 0.1 µg/mL (≈ 0.264 µM).

As to `CC1(C)SC2C(NC(=O)[C@H](N)c3cccc(F)c3)C(=O)N2C1c1nn[nH]n1` (stereo partly drawn) [D-2-amino-2-(m-fluorophenyl)acetyl], the MIC with Streptococcus pyogenes (setting [1]) is less than 0.1 µg/mL. Still for that read-out and setting: the figure for `CC1(C)SC2C(NC(=O)[C@H](N)c3cccc(O)c3)C(=O)N2C1c1nn[nH]n1` (stereo partly drawn) [D-2-amino-2-(m-hydroxyphenyl)acetyl] is less than 0.1 µg/mL; for `CC1(C)SC2C(NC(=O)[C@H](N)c3ccccc3)C(=O)N2C1c1nn[nH]n1` (stereo partly drawn) [D-2-amino-2-phenylacetyl] it is less than 0.1 µg/mL.

For `CC(C)[C@@H](N)C(=O)NC1C(=O)N2C1SC(C)(C)C2c1nn[nH]n1` (stereo partly drawn) [D-2-amino-3-methylbutyryl], the MIC in the experiment with Streptococcus pyogenes (setting [1]) turned out to be 0.2 µg/mL (≈ 0.589 µM). As for `CC1(C)SC2C(NC(=O)[C@H](N)Cc3ccccc3)C(=O)N2C1c1nn[nH]n1` (stereo partly drawn) [D-2-amino-3-phenylpropionyl], the MIC in the experiment with Streptococcus pyogenes (setting [1]) came out at 0.39 µg/mL (≈ 1.01 µM).

For the compound `CC1(C)SC2C(NC(=O)[C@@H](N)c3ccc(O)cc3)C(=O)N2C1c1nn[nH]n1` (stereo partly drawn) [L-2-amino-2-(p-hydroxyphenyl)acetyl], the MIC with Streptococcus pyogenes (setting [1]) was less than 0.1 µg/mL. Same read-out and setting: the figure for `CC(=O)NC1C(=O)N2C1SC(C)(C)C2c1nn[nH]n1` (stereo not drawn) [acetyl] is less than 0.1 µg/mL; for `CC1(C)SC2C(NC(=O)OCc3ccccc3)C(=O)N2C1c1nn[nH]n1` (stereo not drawn) [benzyloxycarbonyl] it is less than 0.1 µg/mL. The same measure, in the same setting: the figure for `CCOC(=O)NC1C(=O)N2C1SC(C)(C)C2c1nn[nH]n1` (stereo not drawn) [ethoxycarbonyl] is less than 0.1 µg/mL; for `CC1(C)S[C@@H]2C(N)C(=O)N2C1c1nnn[nH]1` (stereo partly drawn) [hydrogen, 6-Amino-2,2-dimethyl-3-(5-tetrazolyl)penam] it is less than 0.1 µg/mL. Consider `CC1(C)SC2C(NC(=O)Oc3ccccc3)C(=O)N2C1c1nn[nH]n1` (stereo not drawn) [phenoxycarbonyl], for which, in the experiment with Streptococcus pyogenes, the MIC was less than 0.1 µg/mL.

Values taken from patent US3950350A, “Penam-dimethylsulfoxide complex” (Pfizer Inc., priority 1974, dated 1976).
